pIC50: −log10 of the molar value.
Each compound was assayed against T1, epithelial sodium channel (ENaC) (Mus musculus, UniProt Q61180+Q9WU38+Q9WU39) (assay: Ussing Chamber assay: inhibition of amiloride sensitive short circuit current (I_sc) in M-1 cells). Conditions: Ussing Chamber; mouse kidney M-1 cells on transwell filters; short circuit current; compound added to apical solution; 37° C.; read-out: IC50.
T1 construct: Mouse kidney M-1 cells were cultivated in DMEM; endogenous in cells; host or cells: mouse kidney M-1 cells (cortical collecting duct line), dexamethasone-treated, on transwell filters
T1 sequence (Q61180 1-699): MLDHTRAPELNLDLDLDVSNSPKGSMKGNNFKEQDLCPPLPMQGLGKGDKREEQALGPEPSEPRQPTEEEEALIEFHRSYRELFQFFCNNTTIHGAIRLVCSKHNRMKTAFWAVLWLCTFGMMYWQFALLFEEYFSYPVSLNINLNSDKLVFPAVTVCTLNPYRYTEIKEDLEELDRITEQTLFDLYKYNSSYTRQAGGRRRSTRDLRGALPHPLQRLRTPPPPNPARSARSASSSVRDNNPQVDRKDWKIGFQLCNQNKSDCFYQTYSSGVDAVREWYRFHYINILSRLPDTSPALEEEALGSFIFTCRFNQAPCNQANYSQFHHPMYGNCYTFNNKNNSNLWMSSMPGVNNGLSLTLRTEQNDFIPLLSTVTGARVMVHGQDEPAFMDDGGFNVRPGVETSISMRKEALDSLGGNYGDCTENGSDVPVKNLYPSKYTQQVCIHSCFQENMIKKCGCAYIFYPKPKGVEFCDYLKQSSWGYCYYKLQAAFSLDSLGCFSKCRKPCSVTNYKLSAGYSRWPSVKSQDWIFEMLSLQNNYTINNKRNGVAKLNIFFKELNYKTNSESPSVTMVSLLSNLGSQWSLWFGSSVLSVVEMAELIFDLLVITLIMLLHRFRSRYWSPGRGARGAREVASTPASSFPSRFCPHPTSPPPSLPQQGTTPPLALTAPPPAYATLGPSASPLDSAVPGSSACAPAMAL
T1 sequence (Q9WU38 1-638): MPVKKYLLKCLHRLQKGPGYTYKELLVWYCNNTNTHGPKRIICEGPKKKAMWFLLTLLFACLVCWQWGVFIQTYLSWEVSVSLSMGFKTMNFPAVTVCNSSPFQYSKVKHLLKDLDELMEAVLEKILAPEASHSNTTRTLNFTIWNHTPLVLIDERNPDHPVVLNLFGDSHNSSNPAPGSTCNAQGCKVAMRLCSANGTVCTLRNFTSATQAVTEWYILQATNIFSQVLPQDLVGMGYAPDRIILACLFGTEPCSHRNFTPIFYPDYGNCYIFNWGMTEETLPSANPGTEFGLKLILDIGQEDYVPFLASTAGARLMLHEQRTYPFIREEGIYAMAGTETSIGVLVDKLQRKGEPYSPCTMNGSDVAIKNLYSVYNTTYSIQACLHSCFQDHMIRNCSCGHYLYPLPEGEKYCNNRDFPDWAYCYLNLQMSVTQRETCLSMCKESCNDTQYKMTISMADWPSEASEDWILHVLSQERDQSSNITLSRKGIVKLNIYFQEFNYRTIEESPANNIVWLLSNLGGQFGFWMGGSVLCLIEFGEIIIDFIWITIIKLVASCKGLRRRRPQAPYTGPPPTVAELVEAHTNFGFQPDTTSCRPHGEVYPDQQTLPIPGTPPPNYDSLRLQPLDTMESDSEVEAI
T1 sequence (Q9WU39 1-655): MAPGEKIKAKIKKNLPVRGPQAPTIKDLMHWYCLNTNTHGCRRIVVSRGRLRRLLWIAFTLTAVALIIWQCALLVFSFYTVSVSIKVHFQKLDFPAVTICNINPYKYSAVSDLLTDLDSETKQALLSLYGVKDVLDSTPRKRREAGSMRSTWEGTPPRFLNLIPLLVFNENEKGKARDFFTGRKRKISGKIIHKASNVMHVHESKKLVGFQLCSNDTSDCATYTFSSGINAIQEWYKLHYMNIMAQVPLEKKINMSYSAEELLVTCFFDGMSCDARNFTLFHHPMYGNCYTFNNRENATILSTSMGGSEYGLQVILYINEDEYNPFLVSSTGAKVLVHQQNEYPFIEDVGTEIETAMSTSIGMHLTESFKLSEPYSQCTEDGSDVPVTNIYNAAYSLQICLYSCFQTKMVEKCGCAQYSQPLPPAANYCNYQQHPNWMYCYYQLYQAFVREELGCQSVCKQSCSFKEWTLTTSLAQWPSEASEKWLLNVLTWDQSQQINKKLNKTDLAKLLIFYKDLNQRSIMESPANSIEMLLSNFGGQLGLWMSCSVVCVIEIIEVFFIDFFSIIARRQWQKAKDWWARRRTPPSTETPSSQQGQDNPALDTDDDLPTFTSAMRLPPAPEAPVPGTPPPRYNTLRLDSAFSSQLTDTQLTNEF
Assay type: cell-based
Protocol: Ussing Chamber: Mouse kidney M-1 cells were cultivated in DMEM containing 5% FCS and 5 μM dexamethasone for 10 to 12 days on polyester transwell filters. Filters were inserted into a teflon-coated well-plate which fit into the in-house ussing chamber system. Prior to measurement the medium of M-1 cells was replaced with Caco-2 transport buffer (Invitrogen, Germany). During measurements, the Ussing chamber temperature was kept at 37° C. Short circuit currents (I_sc) were measured in the voltage-clamp mode using an in-house built amplifier (Boehringer Ingelheim, Biberach) with the software package Lab View for data acquisition and analysis. The transepithelial electrical resistance (TEER) was determined by the application of voltage steps of ±5 mV every 5 sec. Compounds were administered at a final concentration of 3 μM or at increasing concentrations (e.g. 1-3-10 μM) to the apical solution. At the end of each experiment the amiloride sensitive I_SC was measured by adding 3 μM amiloride to the apical compartment. Results are expressed as inhibition in percent of the amiloride effect or as IC50.
With the example compounds given above, the following IC50 values were determined in the Ussing Chamber assay: […]

Row | Compound | pIC50
1 | CS(=O)(=O)c1ccc(CNC(=O)CN2CCC(NC(N)=NC(=O)c3nc(Cl)c(N)nc3N)CC2)cc1 [Example 1.25] | 8.52
2 | NC(=NC(=O)c1nc(Cl)c(N)nc1N)NC1CCN(CC(=O)NCc2ccc(N3CCNC3=O)cc2)CC1 [Example 6.13] | 8.52
3 | NC(=NC(=O)c1nc(Cl)c(N)nc1N)NC1CCN(CC(=O)NCc2nccs2)CC1 [Example 6.11] | 8.52
4 | NC(=NC(=O)c1nc(Cl)c(N)nc1N)NC1CCN(CC(=O)NCC(=O)O)CC1 [Example 5.2] | 7.10
5 | Cc1ccc(CNC(=O)CN2CCC(NC(N)=NC(=O)c3nc(Cl)c(N)nc3N)CC2)o1 [Example 1.27] | 8.40
6 | COCCN(CCOC)C(=O)CN1CCC(NC(N)=NC(=O)c2nc(Cl)c(N)nc2N)CC1 [Example 6.2] | 7.57
7 | CN1CCC(CN2CCC(NC(N)=NC(=O)c3nc(Cl)c(N)nc3N)CC2)CC1 [Example 4.17] | 7.14
8 | CCOC(=O)c1cccc(CCNC(=O)CN2CCC(NC(N)=NC(=O)c3nc(Cl)c(N)nc3N)CC2)c1 [Example 1.34] | 8.40
9 | COC(=O)CCCN1CCC(NC(N)=NC(=O)c2nc(Cl)c(N)nc2N)CC1 [Example 4.8] | 7.57
10 | NC(=NC(=O)c1nc(Cl)c(N)nc1N)NC1CCN(CC(=O)Nc2cccc(CN3CCOCC3)c2)CC1 [Example 1.9] | 9.00
11 | CN(C)CCNC(=O)c1ccccc1NC(=O)CN1CCC(NC(=N)NC(=O)c2nc(Cl)c(N)nc2N)CC1 [Example 3.1] | 7.72
12 | CC(=O)N(CCCN(C)C)c1ccc(NC(=O)CN2CCC(NC(N)=NC(=O)c3nc(Cl)c(N)nc3N)CC2)cc1 [Example 1.10] | 9.00
13 | NC(=NC(=O)c1nc(Cl)c(N)nc1N)NC1CCN(CC(=O)Nc2ccc(S(=O)(=O)O)cc2)CC1 [Example 1.13] | 7.64
14 | COC(=O)c1ccc(CNC(=O)CN2CCC(NC(N)=NC(=O)c3nc(Cl)c(N)nc3N)CC2)cc1 [Example 6.4] | 8.52
15 | NC(=O)c1ccc(NC(=O)CN2CCC(NC(N)=NC(=O)c3nc(Cl)c(N)nc3N)CC2)cc1 [Example 1.2] | 8.70
16 | CCS(=O)(=O)CCN1CCC(NC(N)=NC(=O)c2nc(Cl)c(N)nc2N)CC1 [Example 4.3] | 8.00
17 | CN1CCC(N(C)C(=O)c2ccc(NC(=O)CN3CCC(NC(N)=NC(=O)c4nc(Cl)c(N)nc4N)CC3)cc2)CC1 [Example 1.5] | 8.22
18 | NC(=NC(=O)c1nc(Cl)c(N)nc1N)NC1CCN(CC(=O)OCc2ccccc2)CC1 [Example 4.9] | 8.22
19 | NC(=NC(=O)c1nc(Cl)c(N)nc1N)NC1CCN(CCCC(=O)O)CC1 [Example 5.3] | 6.77
20 | NC(=NC(=O)c1nc(Cl)c(N)nc1N)NC1CCN(CC(=O)NC2CN3CCC2CC3)CC1 (stereo not drawn) [Example 1.32] | 7.89
21 | COC(=O)CN1CCC(NC(N)=NC(=O)c2nc(Cl)c(N)nc2N)CC1 [Example 4.11] | 7.57
22 | CCCCOC(=O)CN1CCC(NC(N)=NC(=O)c2nc(Cl)c(N)nc2N)CC1 [Example 4.10] | 8.40
23 | NC(=NC(=O)c1nc(Cl)c(N)nc1N)NC1CCN(CC(=O)Nc2ccc(S(N)(=O)=O)cc2)CC1 [Example 1.4] | 8.70
24 | CCSCCN1CCC(NC(N)=NC(=O)c2nc(Cl)c(N)nc2N)CC1 [Example 4.2] | 8.00

Row | Compound | pIC50
25 | COCCNC(=O)CN1CCC(NC(N)=NC(=O)c2nc(Cl)c(N)nc2N)CC1 [Example 6.12] | 8.70
26 | NC(=NC(=O)c1nc(Cl)c(N)nc1N)NC1CCN(CC(=O)NCCCn2ccnc2)CC1 [Example 1.24] | 8.15
27 | CCCCNC(=O)CN1CCC(NC(N)=NC(=O)c2nc(Cl)c(N)nc2N)CC1 [Example 6.6] | 9.00
28 | CCSCCNC(=O)CN1CCC(NC(N)=NC(=O)c2nc(Cl)c(N)nc2N)CC1 [Example 1.30] | 8.70
29 | NC(=NC(=O)c1nc(Cl)c(N)nc1N)NC1CCN(CC(=O)NCc2ccccc2)CC1 [Example 1.23] | 8.52
30 | COC(=O)c1cccc(CNC(=O)CN2CCC(NC(N)=NC(=O)c3nc(Cl)c(N)nc3N)CC2)c1 [Example 6.5] | 8.22
31 | CC(C)NC(=O)CN1CCC(NC(N)=NC(=O)c2nc(Cl)c(N)nc2N)CC1 [Example 6.7] | 8.52
32 | COCCOCCOCCOCCN1CCC(NC(N)=NC(=O)c2nc(Cl)c(N)nc2N)CC1 [Example 4.12] | 7.26
33 | CN(C)CCN(C)S(=O)(=O)c1ccc(NC(=O)CN2CCC(NC(N)=NC(=O)c3nc(Cl)c(N)nc3N)CC2)cc1 [Example 1.11] | 9.00
34 | NC(=NC(=O)c1nc(Cl)c(N)nc1N)NC1CCN(CCN2CCOCC2)CC1 [Example 4.7] | 7.52
35 | NC(=NC(=O)c1nc(Cl)c(N)nc1N)NC1CCN(CC(=O)NC2CCSCC2)CC1 [Example 1.31] | 8.70
36 | NC(=NC(=O)c1nc(Cl)c(N)nc1N)NC1CCN(CC(=O)Nc2ccc(CN3CCCCC3)cc2)CC1 [Example 1.8] | 9.00
37 | CN(C(=O)CN1CCC(NC(N)=NC(=O)c2nc(Cl)c(N)nc2N)CC1)c1ccccc1 [Example 1.22] | 7.66
38 | NC(=NC(=O)c1nc(Cl)c(N)nc1N)NC1CCN(CC(=O)Nc2cccc(C(=O)O)c2)CC1 [Example 2.2] | 7.51
39 | NC(=NC(=O)c1nc(Cl)c(N)nc1N)NC1CCN(CC(=O)NC2CCOCC2)CC1 [Example 1.29] | 8.10
40 | NC(=NC(=O)c1nc(Cl)c(N)nc1N)NC1CCN(CC(=O)NCc2ccccc2SC(F)(F)F)CC1 [Example 6.3] | 9.00
41 | NC(=NC(=O)c1nc(Cl)c(N)nc1N)NC1CCN(CC(=O)Nc2cccc(S(=O)(=O)O)c2)CC1 [Example 1.20] | 7.77
42 | NC(=O)c1ccc(CNC(=O)CN2CCC(NC(N)=NC(=O)c3nc(Cl)c(N)nc3N)CC2)cc1 [Example 6.8] | 8.30
43 | NC(=NC(=O)c1nc(Cl)c(N)nc1N)NC1CCN(CCCS(=O)(=O)O)CC1 [Example 4.23] | 6.83
44 | N#CCN1CCC(NC(=N)NC(=O)c2nc(Cl)c(N)nc2N)CC1 [Example 7.1] | 7.46
45 | COC(=O)c1cccc(NC(=O)CN2CCC(NC(N)=NC(=O)c3nc(Cl)c(N)nc3N)CC2)c1 [Example 1.19] | 8.52
46 | CN1CCN(c2cccc(CNC(=O)CN3CCC(NC(N)=NC(=O)c4nc(Cl)c(N)nc4N)CC3)c2)CC1 [Example 6.10] | 8.52
47 | CCOC(=O)CN1CCC(NC(N)=NC(=O)c2nc(Cl)c(N)nc2N)CC1 [Example 4.6] | 8.15
48 | COc1ccc(CNC(=O)CN2CCC(N/C(N)=N/C(=O)c3nc(Cl)c(N)nc3N)CC2)cc1 [Example 6.1] | 8.30
